Results reported in patent US8741932B2, “Imidazopyridine derivatives” (Piramal Enterprises Limited, priority 2009, dated 2014).
Read-outs that look alike come from different tables or passages of the source.

Experiments:
[1] = system: A549; assay: Cytotoxicity assay (propidium iodide), A549; format: cell-based; settings: A549 (C1a, lung), 48 hours
[2] = system: PC3
Description: (§4) Cells from cell lines as mentioned in the table given below were seeded at a density of 3000 cells/well in a white opaque 96-well plate. Following incubation at 37° C./5% CO2 for a period of 18-24 hours, the cells were treated with various concentrations (stock solution was prepared in DMSO and subsequent dilutions were made in media as per ATCC guidelines) of the representative compounds of present invention (refer table 3) for a period of 48 hours. At the end of treatment, the spent culture medium was discarded, the cells were washed with 1×PBS and 200 μl of 7 μg/ml propidium iodide was added to each well. The plates were frozen at −70° C. for at least 24 hours. For analysis, the plates were brought to RT, allowed to thaw and were read in PolarStar fluorimeter with the fluorescence setting. The percentage of viable cells in the non treated set of wells was considered to be 100 and the percentage viability following treatment was calculated accordingly. IC50 values were calculated from graphs plotted using these percentages.

[3] = system: HT29; assay: Cytotoxicity assay (propidium iodide), HT29; format: cell-based; settings: HT29 (C4a, colon); 48 hours
Description: as §4

[4] = system: H460; assay: Cytotoxicity assay (propidium iodide), H460; format: cell-based; settings: H460 (C1b, lung), 48 hours
Description: as §4

[5] = system: A2780; assay: Cytotoxicity assay (propidium iodide), A2780; format: cell-based; settings: A2780 (C3a, ovarian), 48 hours
[6] = target: STAT3; assay: STAT3 bioassay (Hela Stat3-luc, luciferase); format: cell-based; settings: Oncostatin M induction
Outline: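 Hela Stat3-luc cells (20,000/well, 24 h) pretreated with compound 1 h, then induced with 100 ng/ml final Oncostatin M for 7-8 h at 37 °C. Luciferase luminescence after lysis; percent inhibition versus induction control, IC50 from these percentages.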

[7] = system: IL-6; assay: Human monocyte assay, LPS-stimulated IL-6; format: cell-based; settings: human monocytes, 1 μg/ml LPS, 5 hours
Outline: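 Adherent human PBMC-derived monocytes (2×10^4/well) were cultured 48 h, preincubated 30 min with compound or 0.5% DMSO, then stimulated with 1 μg/ml E. coli LPS for 5 h at 37° C. TNF-α and IL-6 in supernatants were measured by ELISA.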

[8] = system: MDA MB 231; assay: Cytotoxicity assay (propidium iodide), MDA MB 231; format: cell-based; settings: MDA MB 231 (C6a, breast); 48 hours
Description: as §4

[9] = system: IL-6; assay: Synovial tissue assay, IL-6; format: cell-based; settings: Homo sapiens; synovial tissue cells from rheumatoid arthritis patients, 16 hours
Description: (§1) The assay was designed as in the reference, Lancet, 2(8657), 244-7, Jul.
(§2) Stock Solution: Compounds of the present invention were dissolved in DMSO to obtain a stock solution of 20 mM.
(§3) Synovial tissue was obtained from rheumatoid arthritis patients undergoing knee replacement surgery. The tissue was minced into small pieces and digested in RPMI medium containing 100 U/ml penicillin-G, 100 μg/ml streptomycin, 50 ng/ml amphotericin B (GIBCO; USA), 1.33 mg/ml collagenase Type I (Worthington Biochemical Corporation, New Jersey), 0.5 μg/ml DNAse Type I (Sigma Aldrich; St. Louis, Mo.) and 8.33 U/ml heparin (Biological E. Limited, India) for 3 hours at 37° C., 5% CO2. The digested tissue was filtered through a membrane (mesh size 70 micron; Sigma Aldrich). Subsequently, the cells were washed 3 times and resuspended in complete medium (RPMI supplemented with 5% FBS and 5% human serum-AB+) at a concentration of 1×10^6 cells/ml. All cell washes in this assay were performed using Rosewall Park Memorial Institute (RPMI)-1640 medium (JRH; Australia). For the experiment, 100 μl of cell suspension was added to the wells of a 96-well culture plate. Following cell plating, 100 μl of the culture medium and 1 μl of various concentrations (0.01, 0.03, 0.1, 0.3, 1, 3, 10, 30 and 100 μM) of the compounds of present invention dissolved in DMSO were added to the cells. The final concentration of DMSO was adjusted to 0.5%. For experimental purposes, 1 μl of […] concentrated solution of the compounds of present invention were dissolved in 200 μl cell suspension to achieve a final concentration of 0.01, 0.03, 0.1, 0.3, 1, 3, 10, 30 and 100 μM. The vehicle (0.5% DMSO) was used as control. 10 μM dexamethasone (Sigma Aldrich) or 1 μM 7-hydroxyfluorinide (7HF) were used as standards for the experiments. The plates were incubated for 16 hours at 37° C., 5% CO2. Subsequently, the supernatants were harvested and stored at −70° C. The amounts of TNF-α, IL-6 and interleukin-8 (IL-8) in the supernatants were assayed using OptiEIA ELISA sets, (BD BioSciences Pharmingen). The protocol followed was as per manufacturers instructions. […] The cytotoxicity of test compounds in synovial cells was assessed by MTS assay. Absorbance was measured at 490 nm. Percent cytotoxicity was calculated by the equation: % Cytotoxicity=(A−B)/A×100 where, A is the absorbance of cells treated with DMSO alone and B is the absorbance of cells treated with the test article.

[10] = system: PC3; assay: Cytotoxicity assay (propidium iodide), PC3; settings: Homo sapiens, PC-3, 48 h, read-out: IC50 cytotoxicity
Description: as §4

[11] = system: TNF-α; assay: Synovial tissue assay, TNF-α; format: cell-based; settings: Homo sapiens; synovial tissue cells from rheumatoid arthritis patients, 16 hours
Description: as §1, §2, §3

[12] = system: MDA MB 468; assay: Cytotoxicity assay (propidium iodide), MDA MB 468; format: cell-based; settings: Homo sapiens; MDA MB 468 (C6b, breast); 48 hours
[13] = system: IL-8; assay: Synovial tissue assay, IL-8; format: cell-based; settings: Homo sapiens; synovial tissue cells from rheumatoid arthritis patients, 16 hours
Description: as §1, §2, §3

[14] = system: BT 549; assay: Cytotoxicity assay (propidium iodide), BT 549; format: cell-based; settings: Homo sapiens; BT 549 (C6d, breast); 48 hours
Description: as §4

[15] = system: U 373; assay: Cytotoxicity assay (propidium iodide), U 373; format: cell-based; settings: Homo sapiens, U373 MG; U 373 (C8a, glioblastoma); 48 hours
Description: as §4

[16] = target: T1, mTOR (Homo sapiens, UniProt P42345); assay: mTOR activity assay (cell ELISA, Phospho-AKT Ser 473, A2780 cells); format: cell-based
T1 construct: endogenous in cells; host or cells: A2780 ovarian cell line (ATCC)
Description: Seed cells (Ovarian cell line A2780, ATCC) were plated in a 96 well microtitre plate at a density of 50,000 cells/cm^2 in appropriate complete cell culture medium. The cells were allowed to adhere for 18-24 hours. The cells were allowed to starve for 24 hours. […] Then the cells were stimulated with 20% FCS for 30 minutes. A typical assay would consist of a set of unstimulated cells, a set of stimulated cells and a set of cells treated with compounds of present invention and a set of cells treated with the stimulator. The medium was discarded. The cells were fixed with 100 μL of 3.7% formaldehyde for 15 minutes. The formaldehyde was discarded by inverting the plate and tapping it on a thick tissue paper layer to remove traces. The cells were washed and permeabilized with 200 μL PBS+Triton-X 100 solution (hereafter referred to as PBS-Triton, containing 0.1% triton-X 100 in 1×PBS) three times, incubating the cells each time for 5 minutes. 100 μL blocking solution (10% FCS in PBS-Triton) was added and incubated for 1 hour at 25° C. The blocking solution was discarded and cells were incubated with the primary antibody in PBS-Triton at a dilution of 1:500 for 1 hour at RT (25° C.). [The primary antibody is Phospho-AKT (Ser 473); Cell Signaling; Cat. No. 9271]. The primary antibody solution was discarded and the cells were washed 3 times with PBS-Triton solution and incubated with the HRP-conjugated secondary antibody in PBS-Triton at a dilution of 1:500 for 1 hour at RT (25° C.). The cells were washed 3 times with PBS-Triton followed by two washes with PBS (to remove traces of triton-X 100). The OPD (o-phenylene diamine dihydrochloride) substrate was prepared for detection of the signal by dissolving one tablet set (two tablets) of SigmaFast OPD (Sigma, Cat No. P9187) in 20 mL distilled water. It should be protected from light. 100 μL OPD solutions was added to the wells and the plate was incubated in the dark for 3-5 minutes (depending upon the development of the color). The reaction was stopped by adding 50 μL 2 N H2SO4. The absorbance was measured at 490 nm. The values were expressed in the treated samples, in terms of percentage or fold decrease in AKT phosphorylation with respect to the induced sample. PI-103 (Calbiochem, USA) was used as a standard.

[17] = target: T2, PI3Kα kinase (Homo sapiens, UniProt P42336); assay: Kinase assay (PI3Kα); format: biochemical; settings: read-out: IC50 (μM) for PI3K inhibition
T2 construct: purchased Millipore, USA
Outline: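 Recombinant PI3Kα (20 ng) phosphorylated 12.5 μg phosphatidylinositol with 10 μM ATP and 1 μCi ^32γ P […] in 10 mM Hepes pH 7.5, 50 mM MgCl2 for 20 min at 30° C. Lipids were extracted with MeOH/CHCl3, resolved by TLC, and labelled PI quantified by autoradiography densitometry; PI-103 served as standard.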

[18] = system: HCT116; assay: Cytotoxicity assay (propidium iodide), HCT116; format: cell-based; settings: Homo sapiens, HCT-116; HCT116 (C4b, colon); 48 hours
Description: as §4

[19] = system: U 87 MG; assay: Cytotoxicity assay (propidium iodide), U 87 MG; format: cell-based; settings: Homo sapiens; U 87 MG (C8b, glioblastoma); 48 hours
Description: as §4

[20] = system: OVCAR 3; assay: Cytotoxicity assay (propidium iodide), OVCAR 3; format: cell-based; settings: Homo sapiens; OVCAR 3 (C3c, ovarian); 48 hours
Description: as §4

[21] = system: SKOV3; assay: Cytotoxicity assay (propidium iodide), SKOV3; format: cell-based; settings: Homo sapiens, SK-OV-3; SKOV3 (C3b, ovarian); 48 hours
Description: as §4

[22] = system: PANC 1; assay: Cytotoxicity assay (propidium iodide), PANC 1; format: cell-based; settings: Homo sapiens; PANC 1 (C5a, pancreatic); 48 hours
Description: as §4

[23] = system: CAPAN1; assay: Cytotoxicity assay (propidium iodide), CAPAN1; format: cell-based; settings: Homo sapiens, CAPAN-1; CAPAN1 (C5b, pancreatic); 48 hours
Description: as §4

T2 sequence (P42336 whole entry): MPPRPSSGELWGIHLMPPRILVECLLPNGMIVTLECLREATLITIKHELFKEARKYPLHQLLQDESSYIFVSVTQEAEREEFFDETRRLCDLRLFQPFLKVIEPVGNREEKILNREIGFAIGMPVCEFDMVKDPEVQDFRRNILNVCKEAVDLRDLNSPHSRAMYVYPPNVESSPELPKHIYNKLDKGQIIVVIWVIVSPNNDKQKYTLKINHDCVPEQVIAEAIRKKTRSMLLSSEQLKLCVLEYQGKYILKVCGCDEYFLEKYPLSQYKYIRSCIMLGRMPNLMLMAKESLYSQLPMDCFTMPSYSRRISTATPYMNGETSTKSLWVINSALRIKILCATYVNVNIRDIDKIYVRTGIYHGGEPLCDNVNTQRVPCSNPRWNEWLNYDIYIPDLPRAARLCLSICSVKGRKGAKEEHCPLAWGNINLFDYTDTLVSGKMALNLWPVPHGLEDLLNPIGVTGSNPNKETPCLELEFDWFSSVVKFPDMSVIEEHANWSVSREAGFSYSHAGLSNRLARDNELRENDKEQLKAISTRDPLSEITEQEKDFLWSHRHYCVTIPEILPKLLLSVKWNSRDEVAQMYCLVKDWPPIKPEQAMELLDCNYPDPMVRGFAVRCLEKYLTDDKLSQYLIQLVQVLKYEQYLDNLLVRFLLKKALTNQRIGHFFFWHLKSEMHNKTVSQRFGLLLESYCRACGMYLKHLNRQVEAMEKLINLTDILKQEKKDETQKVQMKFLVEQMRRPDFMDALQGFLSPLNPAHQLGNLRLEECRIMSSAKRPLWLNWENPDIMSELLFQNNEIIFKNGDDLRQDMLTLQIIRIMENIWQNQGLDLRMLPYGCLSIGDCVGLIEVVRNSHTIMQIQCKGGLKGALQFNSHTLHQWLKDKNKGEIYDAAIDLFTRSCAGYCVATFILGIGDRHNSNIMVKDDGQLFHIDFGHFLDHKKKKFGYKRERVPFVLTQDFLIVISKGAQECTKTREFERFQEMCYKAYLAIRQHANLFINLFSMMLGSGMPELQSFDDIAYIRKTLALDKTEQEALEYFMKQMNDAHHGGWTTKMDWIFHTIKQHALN
T2 sequence (P27986 whole entry partner): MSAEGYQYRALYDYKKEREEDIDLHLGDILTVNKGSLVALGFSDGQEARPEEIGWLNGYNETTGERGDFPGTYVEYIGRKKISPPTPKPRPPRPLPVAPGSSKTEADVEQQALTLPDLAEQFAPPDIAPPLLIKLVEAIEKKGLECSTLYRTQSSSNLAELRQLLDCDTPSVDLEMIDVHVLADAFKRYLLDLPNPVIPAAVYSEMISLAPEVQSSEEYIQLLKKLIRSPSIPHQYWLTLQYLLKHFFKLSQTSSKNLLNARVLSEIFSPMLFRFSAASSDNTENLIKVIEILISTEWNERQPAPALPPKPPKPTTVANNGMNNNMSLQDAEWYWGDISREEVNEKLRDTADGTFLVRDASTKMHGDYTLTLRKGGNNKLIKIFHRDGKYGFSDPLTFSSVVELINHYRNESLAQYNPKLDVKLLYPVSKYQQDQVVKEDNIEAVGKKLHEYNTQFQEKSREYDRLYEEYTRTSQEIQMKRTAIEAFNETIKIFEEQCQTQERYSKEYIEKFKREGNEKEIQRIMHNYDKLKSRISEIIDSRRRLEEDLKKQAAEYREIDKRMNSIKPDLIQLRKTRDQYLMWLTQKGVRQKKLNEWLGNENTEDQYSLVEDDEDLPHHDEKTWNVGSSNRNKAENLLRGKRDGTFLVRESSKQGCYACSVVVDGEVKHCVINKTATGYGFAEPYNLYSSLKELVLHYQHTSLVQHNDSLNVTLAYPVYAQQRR

In the case of `Cc1cccc(S(=O)(=O)N(C)N=Cc2cnc3ccc(-c4cccnc4)cn23)c1` [Example 2], the IC50 [1] is reported as 0.01 to 5 µM, the IC50 [2] is reported as 0.01 to 5 µM and the IC50 [3] is reported as > 5 µM. It also gave an IC50 [4] of 0.01 to 5 µM, an IC50 [5] of 0.01 to 5 µM and an IC50 [6] of 5 to 10 µM. The IC50 [7] was 0.001 to 5 µM and the IC50 [8] was 0.01 to 5 µM.
For `CN(N=Cc1cnc2ccc(-c3cccnc3)cn12)S(=O)(=O)c1ccccc1C#N` [Example 9, 2-Cyano-N-methyl-N′-((6-(pyridine-3-yl)imidazo[1,2-a]pyridine-3-yl)methylene)benzenesulfonohydrazide], the IC50 ([1]; Homo sapiens) was 0.01 to 5 µM, the IC50 [9] was 0.01 to 0.3 µM and the IC50 [10] was 0.01 to 5 µM. It also gave an IC50 ([4]; Homo sapiens, NCI-H460) of 0.01 to 5 µM, an IC50 [11] of 0.01 to 0.3 µM and an IC50 [12] of 0.01 to 5 µM. The IC50 [13] was 0.3 to 3 µM, the IC50 ([5]; Homo sapiens) was 0.01 to 5 µM and the IC50 [14] was 0.01 to 5 µM. For the same compound, the IC50 ([6]; Homo sapiens) was 5 to 10 µM and the IC50 ([7]; Monocyte) was 0.001 to 5 µM.
In the case of `Cc1ccc(S(=O)(=O)N(C)N=Cc2cnc3ccc(-c4cccnc4)cn23)cc1F` [Example 20, 3-Fluoro-N, 4-dimethyl-N′-((6-(pyridine-3-yl)imidazo[1,2-a]pyridine-3-yl)methylene) benzenesulfonohydrazide], the IC50 ([1]; Homo sapiens) is reported as > 5 µM, the IC50 [15] is reported as > 5 µM and the inhibition at 1 µM ([16]; 1 μM, read-out: % Inhibition of mTOR activity at 1 μM) is reported as 30 to 50%. The IC50 [17] was 0.01 to 0.5 µM, the IC50 [18] was > 5 µM and the IC50 [19] was > 5 µM. For the same compound, the IC50 [10] was > 5 µM, the IC50 ([4]; Homo sapiens, NCI-H460) was > 5 µM and the IC50 ([5]; Homo sapiens) was > 5 µM. For the same compound, the IC50 ([6]; Homo sapiens) was 0.1 to 5 µM.
In the case of `CN(N=Cc1cnc2ccc(-c3cccnc3)cn12)S(=O)(=O)c1ccc(F)c(C#N)c1` [Example 24, 3-Cyano-4-fluoro-N-methyl-N′-((6-(pyridine-3-yl)imidazo[1,2-a]pyridine-3-yl)methylene) benzenesulfonohydrazide], the IC50 ([1]; Homo sapiens) is reported as 0.01 to 5 µM, the IC50 [15] is reported as 0.01 to 5 µM and the IC50 [18] is reported as > 5 µM. The IC50 [19] was 0.01 to 5 µM, the IC50 [10] was 0.01 to 5 µM and the IC50 ([4]; Homo sapiens, NCI-H460) was 0.01 to 5 µM. For the same compound, the IC50 ([5]; Homo sapiens) was 0.01 to 5 µM and the IC50 ([6]; Homo sapiens) was > 10 µM.
In the case of `CN(N=Cc1cnc2ccc(-c3cccnc3)cn12)S(=O)(=O)c1c(F)cc(F)cc1Br` [Example 26, 2-Bromo-4,6-difluoro-N-methyl-N′-((6-(pyridine-3-yl)imidazo[1,2-a]pyridine-3-yl)methylene) benzenesulfonohydrazide], the IC50 ([1]; Homo sapiens) is reported as 0.01 to 5 µM, the IC50 [20] is reported as 0.01 to 5 µM and the inhibition at 10 µM ([16]; 10 μM) is reported as > 50%. The IC50 [17] was 0.01 to 0.5 µM, the IC50 [21] was 0.01 to 5 µM and the IC50 ([4]; Homo sapiens, NCI-H460) was 0.01 to 5 µM. It also gave an IC50 ([5]; Homo sapiens) of 0.01 to 5 µM, an IC50 [22] of 0.01 to 5 µM and an IC50 [23] of 0.01 to 5 µM. The IC50 ([6]; Homo sapiens) was 0.1 to 5 µM and the IC50 ([7]; Monocyte) was 0.001 to 5 µM.
For `Cc1ccc([N+](=O)[O-])cc1S(=O)(=O)N(C)N=Cc1cnc2ccc(-c3ccc(F)nc3)cn12` [Example 83, N′-((6-(6-fluoropyridine-3-yl)imidazo[1,2-a]pyridine-3-yl)methylene)-n, 2-dimethyl-5-nitrobenzenesulfonohydrazide], the IC50 [1] was > 5 µM, the IC50 [2] was > 5 µM and the IC50 [3] was > 5 µM. For the same compound, the IC50 [4] was > 5 µM, the IC50 [5] was 0.01 to 5 µM and the IC50 [8] was 0.01 to 5 µM.
